Here are results for 22 compounds from patent US4772633A, “6-pyridyl- and 6-phenyl-3-phenyl-1-hexenes and -1-hexynes, composition containing them, and insecticidal and acaricidal method of using them” (Sumitomo Chemical Company, Limited, priority 1986, dated 1988).

In brackets after ≈: the same amount, converted by molar mass. Like-named read-outs stand apart in the source and are kept apart here.

Holding throughout (format): in vivo
Data set [1] deals with carmine spider mite (Tetranychus cinnabarinus). Description: Test Example 8: degree of damage of kidney bean plant by carmine spider mite. Particulars: 500 ppm, sprayed 15 ml/pot plus 2 ml to soil; after 8 days; 25° C. Also on record: key: -: No damage is observed.; +: Slight damage is observed.; ++: The same damage as in the untreated plot is observed. How it is done:
The female adults of carmine spider mite (Tetranychus cinnabarinus) were put at a rate of 10 adults/leaf on the leaves of potted kidney bean (at the primordial leaf stage) which had elapsed 7 days after sowing, and placed in a constant-temperature room kept at 25° C. After 6 days, the 200-fold aqueous dilute solutions (corresponding to 500 ppm), prepared from the emulsifiable concentrates of the following present compounds and control compounds prepared according to Formulation example 2, were each sprayed at a rate of 15 ml/pot on a turn table. At the same time, the soil in the pot was treated with 2 ml of each aqueous solution. After 8 days, the degree of damage of the plant by the mite was examined.
-: No damage is observed.
+: Slight damage is observed.
++: The same damage as in the untreated plot is observed.

Data set [2] has as its system brown rice planthoppers (Nilaparavata lugens). Briefly: Test Example 7: mortality and residual effect on brown rice planthoppers on sprayed potted rice plants. As to conditions: Oryza sativa, 24 h. How it is done: The emulsifiable concentrates of the following compounds and control compounds obtained according to Formulation example 2 were each diluted with water one thousand times (corresponding to 100 ppm) and each of thus prepared solutions was sprayed at the rate of 20 ml/2 pots to the rice plant seedlings planted in Wagner pots having a surface area of one ten thousandth are. After air-drying, the threated plants were covered with the iron wire cages, and about 15 adults of brown rice planthoppers (Nilaparavata lugens) were liberated thereto. Further, about 15 adults thereof were also liberated thereto 4 days after the application to examine the residual effects. Twenty four hours after each liberation, the dead and alive adults were examined to calculate the mortality.

For data set [3], the system named is common mosquito (Culex pipiens pallens). Description: Test Example 1: mortality of larvae and inhibition of emergence of common mosquito. As to conditions: for Inhibitory ratio of emergence: 3.5 ppm, counted when all mosquitoes of no treatment group had emerged; for mortality at 3.5 ppm: Culex pipiens, 24 h, last instar larvae, after one day. How it is done: The emulsifiable concentrates of the following present compounds obtained according to Formulation example 2 were each diluted with water so as to obtain respective aqueous solutions containing 3.5 ppm of said compounds, respectively. One hundred ml of thus diluted aqueous solutions were poured into respective polyethylene cups of 180 ml volume, and 20 of the last instar larvae of common mosquito (Culex pipiens pallens) were liberated thereto. After one day, the dead or alive of the larvae were examined. Thereafter, the feed was added to respective cups and the number of emerged mosquitoes of the respective cups was counted when all the mosquitoes of no treatment group had […] to calculate the inhibitory ratios of the emergence. The mortality and the inhibitory ratio of the emergence are shown according to the following three criteria: mortality: A; 90% or more, […] inhibitory: A; 90% or more, ratio of emergence B; less than 90% to 80% C; less than 80%.

Data set [4] deals with resistant strain of green rice leafhopper (Nephotetix cincticecs). Description: Test Example 3: LC50 against adults of a resistant strain of green rice leafhopper (rice seedling dipping). Particulars: Nephotettix cincticeps, 24 h, read-out: LC50 value. The protocol:
The emulsifiable concentrates of the following present compounds and control compounds obtained according to Formulation example 2 were each diluted with water to a prescribed concentration, and rice seedlings (about 12 cm in length) were dipped for 1 minute in the resulting aqueous dilute solutions. After air-drying, the seedlings were placed in test tube, and 10 adults of a resistant strain of green rice leafhopper (Nephotetix cincticecs) were liberated in the tube. After one day, the dead and alive of the adults were examined to obtain LC50 (50% lethal concentration)(two replications).

For data set [5], the system named is tobacco cutworms (Spodoptera litura). Briefly: Test Example 2: mortality of tobacco cutworm 4th instar larvae on treated artificial feed. Particulars: 144 h, 2 ml in 13 g artificial feed, six days after, two replications. The source says:
Two ml of thus diluted solutions were impregnated into the artificial feeds (13 g) for tobacco cutworms (Spodoptera litura) and thus prepared feeds were placed in polyethylene cups of 11 cm in diameter, respectively. Ten of the 4th instar larvae were liberated thereon.
Six days after, the dead and alive of the larvae were examined to calculate the mortality (two replications).

The subject of data set [6] is young Japanese carp (Cyprinida carpio). Briefly: Test Example 9: fish toxicity test. Particulars: forty-eight hours, 25°±1° C., Probit method, 2880 min. The protocol: Twenty liters of each of the aqueous solutions containing the prescribed concentrations of the present compounds and comparative control one, and 10 young carp were liberated thereto. Forty-eight hours after, the dead and alive carp were examined to obtain LC50 value, (50% lethal concentration) according to Probit method. All the tests were carried out in thermostatic aquaria whose temperatures were kept at 25°±1° C.
young Japanese carp (Cyprinida carpio)
Average body length ±S.D.: 2.94±0.19 cm.
Average body weight ±S.D.: 0.65±0.13 g.

Where [7] appears, read: read-out: Mortality (%) liberated 4 days after application.
Where [8] appears, read: read-out: Mortality (%) liberated just after air-drying.
[9] abbreviates: rice seedlings dipped 1 minute, 10 adults, after one day, two replications.

What is called mortality is the percentage killed. One may read the LC50 as the concentration that kills 50% of the test population.

Turning to `C=CC(C)(CCCc1ccc(F)c(Oc2ccccc2)c1)c1ccc(OCC)cc1` (stereo not drawn) [(2), 3-(4-Ethoxyphenyl)-3-methyl-6-(3-phenoxy-4-fluorophenyl)-1-hexene], the Degree of damage entry in data set [1] was “-”. Moreover, the mortality at 100 ppm in data set [2] (setting [7]) came out at 100%. The mortality at 100 ppm in data set [2] (setting [8]) is 100%. Also, in data set [3], the “Inhibitory ratio of emergence” value is listed as “A (90% or more)” and the mortality at 3.5 ppm was over 90%.

For `C#CC(C)(CCCc1ccc(F)c(Oc2ccccc2)c1)c1ccc(CC)cc1` (stereo not drawn) [(39), 3-(4-Ethylphenyl)-3-methyl-6-(3-phenoxy-4-fluorophenyl)-1-hexyne], the Degree of damage result in data set [1] is “- ~ +”. Also, in data set [3], the “Inhibitory ratio of emergence” value was “A (90% or more)” and the mortality at 3.5 ppm was over 90%.

In the case of `CCOc1ccc(C(C)(C)COCc2cccc(Oc3ccccc3)c2)cc1` [(B), reference compound], the Degree of damage result in data set [1] is given as “+ ~ ++”. Besides, the values for the mortality at 100 ppm in data set [2] (setting [7]) and in data set [2] (setting [8]) were 65% and 100%, respectively.

For the compound `C#CC(C)(CCCc1cccc(Oc2ccccc2)c1)c1ccc(C(F)(F)F)cc1` (stereo not drawn) [(13), 3-(4-Trifluoromethylphenyl)-3-methyl-6-(3-phenoxyphenyl)-1-hexyne], in data set [4], the LC50 was determined as 10 µg/mL (≈ 24.5 µM). Also, in data set [1], the Degree of damage result is “-”. Moreover, in data set [3], the “Inhibitory ratio of emergence” value is given as “A (90% or more)” and the mortality at 3.5 ppm was over 90%. For the same compound, the mortality at 150 ppm in data set [5] stood at 100%.

Turning to `C#CC(C)(CCCc1cccc(Oc2ccccc2)c1)c1ccc(Cl)cc1` (stereo not drawn) [(25), 3-(4-Chlorophenyl)-3-methyl-6-(3-phenoxyphenyl)-1-hexyne], the Degree of damage result in data set [1] is listed as “-”. In addition, in data set [3], the “Inhibitory ratio of emergence” value is on record as “A (90% or more)” and the mortality at 3.5 ppm is over 90%.

Regarding `C#CC(C)(CCCc1ccc(F)c(Oc2ccccc2)c1)c1ccc(C(F)(F)F)cc1` (stereo not drawn) [(37), 3-(4-Trifluoromethylphenyl)-3-methyl-6-(3-phenoxy-4-fluorophenyl)-1-hexyne], in data set [4] (setting [9]), the LC50 stood at 14 µg/mL (≈ 32.8 µM). Moreover, in data set [3], the “Inhibitory ratio of emergence” value is “A (90% or more)” and the mortality at 3.5 ppm was over 90%.

As to `C#CC(C)(CCCc1cccc(Oc2ccccc2)c1)c1ccc(OCC)cc1` (stereo not drawn) [(3), 3-(4-ethoxyphenyl)-3-methyl-6-(3-phenoxyphenyl)-1-hexyne], the “LC50 value (fish toxicity)” value in data set [6] is recorded as over 10 ppm. The Degree of damage result in data set [1] is “-”. Besides, the mortality at 100 ppm is 95% in data set [2] (setting [7]) and 100% in data set [2] (setting [8]). For the same compound, the “Inhibitory ratio of emergence” value in data set [3] is reported as “A (90% or more)”. For the same compound, the mortality at 3.5 ppm in data set [3] is over 90%.

For `C#CC(C)(CCCc1ccc(F)c(Oc2ccccc2)c1)c1ccc(Cl)cc1` (stereo not drawn) [(10), 3-(4-Chlorophenyl)-3-methyl-6-(3-phenoxy-4-fluorophenyl)-1-hexyne], in data set [1], the Degree of damage entry is “-”. Besides, in data set [3], the “Inhibitory ratio of emergence” value is “A (90% or more)” and the mortality at 3.5 ppm was over 90%.

`C#CC(C)(CCCc1cccc(Oc2ccccc2)c1)c1ccc(OCC)c(Cl)c1` (stereo not drawn) [(16), 3-(3-Chloro-4-ethoxyphenyl)-3-methyl-6-(3-phenoxyphenyl)-1-hexyne]: the Degree of damage entry in data set [1] is listed as “-”. In data set [3], the “Inhibitory ratio of emergence” value is recorded as “A (90% or more)” and the mortality at 3.5 ppm was 10 to 90%.

For `C#CC(C)(CCCc1cccc(Oc2ccccc2)n1)c1ccc(OCC)cc1` (stereo not drawn) [(18), 3-(4-ethoxyphenyl)-3-methyl-6-(6-phenoxypyridin-2-yl)-1-hexyne], the Degree of damage entry in data set [1] is on record as “- ~ +”. Moreover, in data set [3], the “Inhibitory ratio of emergence” value is given as “A (90% or more)” and the mortality at 3.5 ppm was over 90%.

Consider `C#CC(C)(CCCc1ccc(F)c(Oc2ccccc2)n1)c1ccc(OCC)cc1` (stereo not drawn) [(20)], for which the Degree of damage entry in data set [1] is listed as “- ~ +”. In data set [3], the “Inhibitory ratio of emergence” value is reported as “A (90% or more)” and the mortality at 3.5 ppm is over 90%.

Consider `C=CC(C)(CCCc1cccc(Oc2ccccc2)c1)c1ccc(OCC)cc1` (stereo not drawn) [(1), 3-(4-ethoxyphenyl)-3-methyl-6-(3-phenoxyphenyl)-1-hexene], for which the Degree of damage entry in data set [1] is listed as “- ~ +”. Also, the mortality at 100 ppm in data set [2] (setting [7]) and in data set [2] (setting [8]) was 100% each time. Besides, the “Inhibitory ratio of emergence” value in data set [3] is reported as “A (90% or more)”. In data set [3], this compound showed a mortality at 3.5 ppm of over 90%.

Turning to `C#CC(C)(CCCc1cccc(Oc2ccccc2)c1)c1ccc(OC(F)F)cc1` (stereo not drawn) [(17), 3-(4-difluoromethoxyphenyl)-3-methyl-6-(3-phenoxyphenyl)-1-hexyne], the Degree of damage result in data set [1] is recorded as “-”. In data set [3], the “Inhibitory ratio of emergence” value is reported as “A (90% or more)” and the mortality at 3.5 ppm is over 90%.

Regarding `C#CC(C)(CCCc1ccc(F)c(Oc2ccccc2)c1)c1ccc(OCC=C)cc1` (stereo not drawn) [(8), 3-(4-Allyloxyphenyl)-3-methyl-6-(3-phenoxy-4-fluorophenyl)-1-hexyne], in data set [1], the Degree of damage result is “-”. In addition, in data set [3], the “Inhibitory ratio of emergence” value is on record as “A (90% or more)” and the mortality at 3.5 ppm was over 90%.

Regarding `CCC(C)c1ccccc1OC(=O)NC` (stereo not drawn) [(C), BPMC, reference compound], the mortality at 100 ppm was determined as 6% in data set [2] (setting [7]) and 100% in data set [2] (setting [8]).

In the case of `CCOC(=O)CC(SP(=S)(OC)OC)C(=O)OCC` (stereo not drawn) [(D), Malathion, reference compound], the LC50 in data set [4] (setting [9]) is about 500 µg/mL (≈ 1510 µM).

Regarding `C#CC(CCCc1ccc(F)c(Oc2ccccc2)c1)c1ccc(OCC)cc1` (stereo not drawn) [(43), 3-(4-Ethoxyphenyl)-6-(3-phenoxy-4-fluorophenyl)-1-hexyne], in data set [1], the Degree of damage entry was “- ~ +”. In data set [3], the “Inhibitory ratio of emergence” value is reported as “A (90% or more)” and the mortality at 3.5 ppm was over 90%.

As to `C#CC(C)(CCCc1cccc(Oc2ccccc2)c1)c1ccc(OCC=C)cc1` (stereo not drawn) [(7), 3-(4-allyloxyphenyl)-3-methyl-6-(3-phenoxyphenyl)-1-hexyne], in data set [1], the Degree of damage entry is recorded as “-”. Further, in data set [2] (setting [7]), the mortality at 100 ppm came out at 93%. In data set [2] (setting [8]), the mortality at 100 ppm was determined as 100%. In data set [3], the “Inhibitory ratio of emergence” value is “A (90% or more)” and the mortality at 3.5 ppm is 10 to 90%.

With `C#CC(C)(CCCc1ccc(F)c(Oc2ccccc2)c1)c1ccc(OCC)c(Cl)c1` (stereo not drawn) [(11), 3-(3-Chloro-4-ethoxyphenyl)-3-methyl-6-(3-phenoxy-4-fluorophenyl)-1-hexyne], in data set [1], the Degree of damage result is “-”. Further, in data set [3], the “Inhibitory ratio of emergence” value was “A (90% or more)” and the mortality at 3.5 ppm is over 90%.

`Cc1cc(Cl)ccc1N=CN(C)C` [(E), Chlordimeform, reference compound]: the Degree of damage entry in data set [1] is on record as “- ~ +”.

`C#CC(C)(CCCc1ccc(F)c(Oc2ccccc2)c1)c1ccc(OC(F)F)cc1` (stereo not drawn) [(6), 3-(4-Difluoromethoxyphenyl)-3-methyl-6-(3-phenoxy-4-fluorophenyl)-1-hexyne]: the Degree of damage entry in data set [1] was “-”. In addition, in data set [3], the “Inhibitory ratio of emergence” value is reported as “A (90% or more)” and the mortality at 3.5 ppm is over 90%.

In the case of `C#CC(C)(CCCc1ccc(F)c(Oc2ccccc2)c1)c1ccc(OCC)cc1` (stereo not drawn) [(4), 3-(4-Ethoxyphenyl)-3-methyl-6-(3-phenoxy-4-fluorophenyl)-1-hexyne], the “LC50 value (fish toxicity)” value in data set [6] was over 10 ppm. In data set [1], the Degree of damage result was “-”. Besides, the mortality at 100 ppm in data set [2] (setting [7]) was determined as 100%. Besides, the mortality at 100 ppm in data set [2] (setting [8]) came out at 100%. In data set [3], the “Inhibitory ratio of emergence” value is reported as “A (90% or more)” and the mortality at 3.5 ppm was over 90%.
